According to patent publication US8084621B2, “3-Pyrrolo[b]cyclohexylene-2-dihydroindolinone derivatives and uses thereof” (Jiangsu Simcere Pharmaceutical R&D Co. Ltd., priority 2006, dated 2011):

Assays:
Format in all cases: cell-based
[1] = tested on: Human Colon Cancer Cell Line (CACO-2); test: Tumor cell proliferation assay (MTT), CACO-2; conditions: concentration of 10^−5 mol/L, preliminary screening, 72 hours, read-out: Inhibition rate % CACO-2
Description: (§1) The assay used generally is the blue tetrazolium bromide (MTT) method. […] The amount of formazan can be detected by the microplate reader through the absorption value at 570 nm. The amount of formazan product generated is proportional to the number of living cells in the sample, so the OD value may reflect the number of living cells and the ability of a test drug to inhibit or kill cells. The MTT assay may be used in determining the ability of different compounds of the present invention to inhibit one or more cancer cells proliferation. Similar assays can be designed along the same lines for any cancer cell using techniques well known in the art.
(§2) The assay used generally is the blue tetrazolium bromide (MTT) method. […] Intracellular purple formazan salt crystals can be solved in DMSO and the absorption value at 570 nm is detected by the microplate reader, then the number of living cells can be detected indirectly. So MTT assay may be used to determine the ability of a compound of the present invention to inhibit cell proliferation. Similar assays can be designed along the same lines for any cancer cell using techniques well known in the art.
2.2.10 Human Colon Cancer Cell Line (CACO-2)
The cell of 2.2.10 cultured in DMEM/High glucose medium containing 12% fetal bovine serum in the condition of 37° C., 5% CO2.
(§3) 2.3.1 Cell seeding: Trypsinize the cell by 0.05% trypsin-EDTA and add RPMI 1640 medium (DMEM or 5A) containing 12% calf serum. Count the number, then dilute to 1.67×10^4/ml. Add 180 ul/well to the 96 well plate (3000 cells/well).
(§4) 2.3.2 Culture: cells are incubated for 24 hours at 37° C. under 5% CO2.
(§5) 2.3.3 Preliminary screening: The compounds are firstly diluted to 0.1 mol/L with DMSO, and then diluted to three concentrations of 10^−5 mol/L, 10^−6 mol/L and 10^−7 mol/L. Add 20 ul test compounds to the 96 well plate and incubate for 72 hours. Each group has three parallel wells and all experiments repeat three times. Each inhibition ratio is calculated, then an average value of three times is taken as the measured value. 2.3.4 Staining 2.3.4.1 Attached cell: add 20 ul/well MTT to the 96-well plates; incubate for 4 hours in the incubator. Pour out the culture medium in the well and add 100 ul/well DMSO. Shake the plate for 5 min. 2.3.4.2 Suspension cell: add 20 ul/well MTT to the 96-well plates; incubate for 4 hours in the incubator. Add 50 ul/well 20% SDS and incubate for overnight in the incubator. 2.3.5 Reading the plates: read the absorbance A570-A630 with the Infinite M200 microtiter plate reader. Calculate the inhibition ratio of the test compounds. 2.3.6 Secondary screening: the compounds whose inhibition ratio is greater than 50% at the concentrations of 10^−5 mol/L in the preliminary screening will be picked out for Secondary screening. Dilute these compounds to ten concentrations: 10^−5 mol/L, 0.5×10^−5 mol/L, 10^−6 mol/L, 0.8×10^−6 mol/L, 0.6×10^−6 mol/L, 0.4×10^−6 mol/L, 0.2×10^−6 mol/L, 10^−7 mol/L, 0.8×10^−7 mol/L and 0.4×10^−7 mol/L. Add 20 ul test compound solution to the 96 well plate and incubate for 48 hours. Each group has three parallel wells and all experiments repeat for three times. Read the plates and calculate the inhibition ratio according to the preliminary screening method. 2.3.7 Calculate the Inhibition Ratio of Cell Proliferation and the IC50
(§6) According to the inhibition ratio of cell proliferation at the different concentrations of the compound, inhibition ratio of 50% of the test compound is calculated through the logarithm of the concentration of the compound with the Logit [I] linear regression, and an average value of three times is taken as the measured value of a sample.

[2] = tested on: Human Leukemia Line (K562); test: Tumor cell proliferation assay (MTT), K562; conditions: for inhibition at 10 µM: concentration of 10^−5 mol/L, preliminary screening, 72 hours, read-out: Inhibition rate % K562; for IC50: secondary screening, 48 hours
Description: as §1, §2
2.2.3 Human Leukemia Line (K562)
The cells of the 2.2.1, 2.2.2, 2.2.3, 2.2.4, 2.2.5 cultured with RPMI 1640 containing 12% calf serum in the condition of 37° C., 5% CO2.
as §3, §4, §5, §6

[3] = tested on: Human Breast Cancer Cell Line (MCF-7); test: Tumor cell proliferation assay (MTT), MCF-7; conditions: for inhibition at 10 µM: MCF7, concentration of 10^−5 mol/L, preliminary screening, 72 hours, read-out: Inhibition rate % MCF-7; for IC50: MCF7, secondary screening, 48 hours
Description: as §1, §2
2.2.9 Human Breast Cancer Cell Line (MCF-7);
(§7) The cells of 2.2.8, 2.2.9 cultured in DMEM/High glucose medium containing 12% calf serum in the condition of 37° C., 5% CO2.
as §3, §4, §5, §6

[4] = tested on: Human Hepatocellular Carcinoma Cell Line (HEPG2); test: Tumor cell proliferation assay (MTT), HEPG2; conditions: for inhibition at 10 µM: concentration of 10^−5 mol/L, preliminary screening, 72 hours, read-out: Inhibition rate % HEPG2; for IC50: secondary screening, 48 hours
Description: as §1, §2
2.2.8 Human Hepatocellular Carcinoma Cell Line (HEPG2);
as §7, §3, §4, §5, §6

[5] = tested on: Human Small Cell Lung Cancer Cell Line (NCI-H446); test: Tumor cell proliferation assay (MTT), NCI-H446; conditions: for inhibition at 10 µM: concentration of 10^−5 mol/L, preliminary screening, 72 hours, read-out: Inhibition rate % NCI-H446; for IC50: secondary screening, 48 hours

IC50 [5] | IC50 [2] | IC50 [3] | IC50 [4] | SMILES | inhibition at 10 µM [1] | inhibition at 10 µM [2] | inhibition at 10 µM [3] | inhibition at 10 µM [4] | inhibition at 10 µM [5]
8.15 µM |  |  |  | Cc1[nH]c2c(c1C(=O)NCC(O)CN1CCN(C)CC1)CCC/C2=C1/C(=O)Nc2ccc(F)cc21 (stereo not shown) [I-77, N-[2-hydroxy-3-(4-methylpiperazin-1-yl)propyl]-2-methyl-7-[1,2-dihydro-5-fluoro-2-oxo-3H-indol-(Z)-3-ylidene]-4,5,6,7-tetrahydro-1H-indole-3-carboxamide] |  |  |  |  | 57.2%
2.52 µM |  |  |  | Cc1[nH]c2c(c1C(=O)NCC(O)CN1CCCC1)CCC/C2=C1/C(=O)Nc2ccc(F)cc21 (stereo not shown) [I-71, N-(2-hydroxy-3-(pyrrolidin-1-yl)propyl)-2-methyl-7-[1,2-dihydro-5-fluoro-2-oxo-3H-indol-(Z)-3-ylidene]-4,5,6,7-tetrahydro-1H-indole-3-carboxamide] |  |  |  |  | 87.5%
2.64 µM |  |  |  | Cc1[nH]c2c(c1C(=O)NCC(O)CN1CCCC1)CCC/C2=C1/C(=O)Nc2ccccc21 (stereo not shown) [I-70, N-(2-hydroxy-3-(pyrrolidin-1-yl)propyl)-2-methyl-7-[1,2-dihydro-2-oxo-3H-indol-(Z)-3-ylidene]-4,5,6,7-tetrahydro-1H-indole-3-carboxamide] |  |  |  |  | 87%
 | 0.93 µM | 7.01 µM | 7.22 µM | Cc1[nH]c2c(c1C(=O)NCC(O)CN1CCCCC1)CCC/C2=C1/C(=O)Nc2ccc(F)cc21 (stereo not shown) [I-74, N-(2-hydroxy-3-(piperidin-1-yl)propyl)-2-methyl-7-[1,2-dihydro-5-fluoro-2-oxo-3H-indol-(Z)-3-ylidene]-4,5,6,7-tetrahydro-1H-indole-3-carboxamide] | 83.1% | 95.1% | 70.7% | 84.9% | 
2.27 µM |  |  | 3.15 µM | CCN(CC)CC(O)CNC(=O)c1c(C)[nH]c2c1CCC/C2=C1/C(=O)Nc2ccccc21 (stereo not shown) [I-63, N-(3-(diethylamino)-2-hydroxypropyl)-2-methyl-7-[1,2-dihydro-2-oxo-3H-indol-(Z)-3-ylidene]-4,5,6,7-tetrahydro-1H-indole-3-carboxamide] |  |  |  | 100% | 79%
 | 3.51 µM | 7.88 µM | 7.27 µM | CCN(CC)CCNC(=O)c1c(C)[nH]c2c1CCC/C2=C1/C(=O)Nc2ccc(F)cc21 [I-2, N-(2-(diethylamino)ethyl)-2-methyl-7-[1,2-dihydro-5-fluoro-2-oxo-3H-indol-(Z)-3-ylidene]-4,5,6,7-tetrahydro-1H-indole-3-carboxamide] | 43% | 95.3% | 55.4% | 64% | 
 | 0.72 µM |  | 7.36 µM | Cc1[nH]c2c(c1C(=O)NCC(O)CN1CCCCC1)CCC/C2=C1/C(=O)Nc2ccccc21 (stereo not shown) [I-73, N-(2-hydroxy-3-(piperidin-1-yl)propyl)-2-methyl-7-[1,2-dihydro-2-oxo-3H-indol-(Z)-3-ylidene]-4,5,6,7-tetrahydro-1H-indole-3-carboxamide] | 44.4% | 94.8% | 43.4% | 59.3% | 
5.99 µM |  |  |  | Cc1[nH]c2c(c1C(=O)NCCCN(C)C)CCC/C2=C1/C(=O)Nc2ccc(Cl)cc21 [I-7, N-(3-(dimethylamino)propyl)-2-methyl-7-[1,2-dihydro-5-chloro-2-oxo-3H-indol-(Z)-3-ylidene]-4,5,6,7-tetrahydro-1H-indole-3-carboxamide] |  |  |  |  | 62.7%

More lines, now with the values behind:

SMILES | IC50 [5] | IC50 [2] | IC50 [3] | IC50 [4] | inhibition at 10 µM [1] | inhibition at 10 µM [2] | inhibition at 10 µM [3] | inhibition at 10 µM [4] | inhibition at 10 µM [5]
Cc1[nH]c2c(c1C(=O)NCCO)CCC/C2=C1/C(=O)Nc2ccccc21 [I-8, N-(2-hydroxyethyl)-2-methyl-7-[1,2-dihydro-2-oxo-3H-indol-(Z)-3-ylidene]-4,5,6,7-tetrahydro-1H-indole-3-carboxamide] |  |  |  |  | 17% | 39.4% | 25.2% | 53.8% | 
Cc1[nH]c2c(c1C(=O)NCC(O)CN1CCOCC1)CCC/C2=C1/C(=O)Nc2ccc(F)cc21 (stereo not shown) [I-68, N-(2-hydroxy-3-morpholinopropyl)-2-methyl-7-[1,2-dihydro-5-fluoro-2-oxo-3H-indol-(Z)-3-ylidene]-4,5,6,7-tetrahydro-1H-indole-3-carboxamide] |  |  |  |  |  |  |  |  | 29.1%
CCN(CC)CCNC(=O)c1c(C)[nH]c2c1CCC/C2=C1/C(=O)Nc2ccc(Cl)cc21 [I-3, N-(2-(diethylamino)ethyl)-2-methyl-7-[1,2-dihydro-5-chloro-2-oxo-3H-indol-(Z)-3-ylidene]-4,5,6,7-tetrahydro-1H-indole-3-carboxamide] | 6.47 µM |  |  | 3.14 µM |  |  |  | 98.2% | 69.9%
CCN(CC)CCNC(=O)c1c(C)[nH]c2c1CCC/C2=C1/C(=O)Nc2ccc(C)cc21 [I-4, N-(2-(diethylamino)ethyl)-2-methyl-7-[1,2-dihydro-5-methyl-2-oxo-3H-indol-(Z)-3-ylidene]-4,5,6,7-tetrahydro-1H-indole-3-carboxamide] | 5.17 µM |  |  |  |  |  |  |  | 57.7%
Cc1[nH]c2c(c1C(=O)NCCO)CCC/C2=C1/C(=O)Nc2ccc(F)cc21 [I-9, N-(2-hydroxyethyl)-2-methyl-7-[1,2-dihydro-5-fluoro-2-oxo-3H-indol-(Z)-3-ylidene]-4,5,6,7-tetrahydro-1H-indole-3-carboxamide] |  |  |  |  | 18% |  |  | 47.5% | 
Cc1[nH]c2c(c1C(=O)N1CCN(C)CC1)CCC/C2=C1/C(=O)Nc2ccc(F)cc21 [I-14, 2-methyl-3-(4-methylpiperazine-1-carbonyl)-7-[1,2-dihydro-5-fluoro-2-oxo-3H-indol-(Z)-3-ylidene]-4,5,6,7-tetrahydro-1H-indole] |  |  |  |  | 2.36% |  |  | 30.4% | 
CCN(CC)CCNC(=O)c1c(C)[nH]c2c1CCC/C2=C1/C(=O)Nc2ccccc21 [I-5, N-(2-(diethylamino)ethyl)-2-methyl-7-[1,2-dihydro-2-oxo-3H-indol-(Z)-3-ylidene]-4,5,6,7-tetrahydro-1H-indole-3-carboxamide] |  | 2.94 µM | 6.94 µM | 7.73 µM | 44.1% | 93.3% | 50.5% | 64.6% | 
Cc1[nH]c2c(c1C(=O)NCCN(C)C)CCC/C2=C1/C(=O)Nc2ccc(F)cc21 [I-6, N-(2-(dimethylamino)ethyl)-2-methyl-7-[1,2-dihydro-5-fluoro-2-oxo-3H-indol-(Z)-3-ylidene]-4,5,6,7-tetrahydro-1H-indole-3-carboxamide] |  |  |  |  |  |  |  |  | 27.1%
